The values below come from patent publication US9400274B2, “Cancer phospholipidome” (Katholieke Universiteit Leuven, priority 2010, dated 2016).

For assay [1], the system named is Human breast adenocarcinoma cells MDA-MB-231. The assay can be described thus: Phospholipid profiling (tandem MS) of soraphen-treated MDA-MB-231 cells. Type of assay: cell-based. To be noted: 100 nm soraphen vs vehicle, 72 h, four phospholipid classes. The protocol:
Human breast adenocarcinoma cells MDA-MB-231 (obtained from the American Type Culture Collection) were cultured in DMEM-F12 supplemented with 10% fetal bovine serum and were grown at 37° C. in a humidified 5% CO2 incubator. The day after seeding, cells were treated with 100 nm soraphen or vehicle (control) for 72 h.
Lipids were extracted from both soraphen and vehicle treated cells and were analyzed by tandem mass spectrometry.

For assay [2], the system named is human renal cell carcinoma cell line RCC4. Nature of the assay: Phospholipid profiling (tandem MS) of soraphen-treated RCC4 cells. Type of assay: cell-based. To be noted: 100 nm soraphen vs vehicle, 72 h, PC, PE, PI, PS classes. The protocol: Renal cancer cell lines RCC4 VHL (Von Hippel Lindau) positive and negative were cultured in advanced DMEM supplemented with 10% fetal bovine serum, 1% PSG and 0.5 mg/ml G418. Cells were grown at 37° C. in a humidified 5% CO2 incubator. The day after seeding, cells were treated with 100 nm soraphen or vehicle (control) for 72 h.
To assess the impact of fatty acyl chain elongation and of chemical inhibitors of this process, the human renal cell carcinoma cell line RCC4 was treated with soraphen.

“Also recorded” adds a separate entry of the source.

For `CO[C@H]1CCCC[C@@H](c2ccccc2)OC(=O)[C@@H](C)[C@@]2(O)O[C@H]([C@@H](C)[C@H](O)[C@H]2OC)[C@@H](C)/C=C/[C@H]1OC` [soraphen], the “changes in phospholipid acyl chain composition (soraphen/control ratio)” value in assay [1] is listed as “a marked shift from longer to shorter lipid species; also recorded: a clear decrease in the longer lipid species”; in assay [2], “a marked shift from longer to shorter lipid species; also recorded: a marked inhibition of acyl chain elongation”.
